Structures are written as SMILES.

The results in this text go back to patent US20100286145A1, “ISOPHTHALAMIDE DERIVATIVES INHIBITING BETA-SECRETASE ACTIVITY” (CoMentis, Inc., priority 2007, published 2010).

The target of this experiment is memapsin 2 (Homo sapiens, UniProt P56817). Nature of the experiment: Inhibition of memapsin 2 beta-secretase activity (fluorogenic substrate FS-2). The format is biochemical. As to conditions: memapsin 2, pH 4, 37° C., 20 minutes pre-incubation; read-out: M2Ki. As to the method: Potency of compounds were determined by measurement of their inhibition of memapsin 2 activity toward a fluorescent substrate. Kinetic inhibition experiments were performed using the procedure as described in Ermolieff, et al. (Biochemistry 39:12450-12456 (2000), the teachings of which are incorporated hereby in their entirety). Briefly, assays were performed at pH 4, 37° C., by pre-incubation of memapsin 2 enzyme with compound for 20 minutes. Activity measurements were initiated by addition of a fluorogenic substrate FS-2 (Bachem Americas, Torrance, Calif.) MCA-SEVNLDAEFR-DNP (SEQ ID NO.: 2). The substrate was derived from 10 amino acids of the human amyloid precursor protein (APP), with the Swedish variant amino acids at the beta-secretase cleavage site. The terminal amino acid was modified from arginine to lysine to facilitate derivatization with a functional group for detection by autofluorescence. The amino acid sequence of the “core” peptide of the substrate is SEVNLDAEFK (SEQ ID NO.: 3). The amino terminus was derivatized with (7-methoxycoumarin-4-yl)acetyl (MCA), and the epsilon amine of the lysine side chain of the terminal residue (K in sequence SEVNLDAEFK (SEQ ID NO.: 3)) was derivatized with 2,4-dinitorphenyl (DNP).
Fluorescent signal increase over time was measured as a rate of hydrolysis of the peptide substrate. Inhibition of hydrolytic rate was expressed relative to uninhibited controls and fit to a model for tight-binding inhibitors (J. Bieth, in “Proteinase Inhibitors,” Bayer Symposium V, 463-469, 1974, which is herein incorporated by reference for all purposes in its entirety).

Chain of memapsin 2 (P56817 46-501): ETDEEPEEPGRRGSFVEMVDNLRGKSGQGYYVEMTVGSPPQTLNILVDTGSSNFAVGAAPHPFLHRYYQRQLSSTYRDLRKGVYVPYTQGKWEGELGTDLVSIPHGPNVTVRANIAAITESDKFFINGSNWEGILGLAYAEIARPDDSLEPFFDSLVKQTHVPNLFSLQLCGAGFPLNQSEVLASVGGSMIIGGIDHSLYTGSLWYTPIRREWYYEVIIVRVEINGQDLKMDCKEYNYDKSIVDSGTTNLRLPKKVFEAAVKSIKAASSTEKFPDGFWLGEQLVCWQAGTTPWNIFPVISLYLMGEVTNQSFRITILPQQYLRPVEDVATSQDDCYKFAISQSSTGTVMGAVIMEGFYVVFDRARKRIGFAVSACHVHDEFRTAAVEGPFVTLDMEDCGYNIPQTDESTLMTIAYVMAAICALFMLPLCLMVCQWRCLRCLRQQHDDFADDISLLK

With `Cc1csc(CN(C)C(=O)c2cccc(C(=O)N[C@@H](Cc3ccccc3)[C@H](O)CNCc3ccc(C(F)(F)F)nc3)c2)n1` [Compound 7, N1-((2S,3R)-3-hydroxy-1-phenyl-4-((6-(trifluoromethyl)pyridin-3-yl)methylamino)butan-2-yl)-N3-methyl-N3-((4-methylthiazol-2-yl)methyl)isophthalamide], the Ki is over 501 nM.

For the compound `Cc1csc(CN(C)C(=O)c2cccc(C(=O)N[C@@H](Cc3ccccc3)[C@H](O)CNCc3ccc(C)c(C)c3)c2)n1` [Compound 13, N1-((2S,3R)-4-(3,4-dimethylbenzylamino)-3-hydroxy-1-phenylbutan-2-yl)-N3-methyl-N3-((4-methylthiazol-2-yl)methyl)isophthalamide], the Ki was under 300 nM.

Regarding `COc1cccc(CNC[C@@H](O)[C@H](Cc2ccccc2)NC(=O)c2cccc(C(=O)N(C)Cc3ccco3)c2)c1` [Compound 14, N1-(furan-2-ylmethyl)-N3-((2S,3R)-3-hydroxy-4-(3-methoxybenzylamino)-1-phenylbutan-2-yl)-N1-methylisophthalamide], the Ki is over 501 nM.

On to `Cc1csc(CN(C)C(=O)c2cccc(C(=O)N[C@@H](Cc3ccccc3)[C@H](O)CNCc3cccnc3)c2)n1` [Compound 15, N1-((2S,3R)-3-hydroxy-1-phenyl-4-(pyridin-3-ylmethylamino)butan-2-yl)-N3-methyl-N3-((4-methylthiazol-2-yl)methyl)isophthalamide], for which the Ki was over 501 nM.

Regarding `CCCN(Cc1nc(C)cs1)C(=O)c1cc(OC)cc(C(=O)N[C@@H](Cc2ccccc2)[C@H](O)CNCc2cccc(OC)c2)c1` [Compound 20, N1-((2S,3R)-3-hydroxy-4-(3-methoxybenzylamino)-1-phenylbutan-2-yl)-5-methoxy-N3-((4-methylthiazol-2-yl)methyl)-N3-propylisophthalamide], the Ki is under 300 nM.

Turning to `COc1cccc(CNC[C@@H](O)[C@H](Cc2ccccc2)NC(=O)c2cccc(C(=O)N(C)Cc3nc(C)c(C)s3)c2)c1` [Compound 24, N1-((4,5-dimethylthiazol-2-yl)methyl)-N3-((2S,3R)-3-hydroxy-4-(3-methoxybenzylamino)-1-phenylbutan-2-yl)-N1-methylisophthalamide], the Ki is over 501 nM.

For `Cc1csc(CN(C)C(=O)c2cccc(C(=O)N[C@@H](Cc3ccccc3)[C@H](O)CNCc3cccc4ccccc34)c2)n1` [Compound 35, N1-((2S,3R)-3-hydroxy-4-(naphthalen-1-ylmethylamino)-1-phenylbutan-2-yl)-N3-methyl-N3-((4-methylthiazol-2-yl)methyl)isophthalamide], the Ki was 301 to 500 nM.

As for `COC(=O)c1ccc(CNC[C@@H](O)[C@H](Cc2ccccc2)NC(=O)c2cccc(C(=O)N(C)Cc3nc(C)cs3)c2)nc1C` [Compound 36, methyl 6-(((2R,3S)-2-hydroxy-3-(3-(methyl((4-methylthiazol-2-yl)methyl)carbamoyl)benzamido)-4-phenylbutylamino)methyl)-2-methylnicotinate], the Ki is over 501 nM.

As for `Cc1csc(CN(C)C(=O)c2cccc(C(=O)N[C@@H](Cc3ccccc3)[C@H](O)CNCc3ccc(CO)c(C)n3)c2)n1` [Compound 37, N1-((2S,3R)-3-hydroxy-4-((5-(hydroxymethyl)-6-methylpyridin-2-yl)methylamino)-1-phenylbutan-2-yl)-N3-methyl-N3-((4-methylthiazol-2-yl)methyl)isophthalamide], the Ki was over 501 nM.

`COc1cccc(CNC[C@@H](O)[C@H](Cc2ccccc2)NC(=O)c2cc(O)cc(C(=O)N(C)Cc3nc(C)cs3)c2)c1` [Compound 38, 5-hydroxy-N1-((2S,3R)-3-hydroxy-4-(3-methoxybenzylamino)-1-phenylbutan-2-yl)-N3-methyl-N3-((4-methylthiazol-2-yl)methyl)isophthalamide]: the Ki is under 300 nM.

In the case of `Cc1csc(CN(C)C(=O)c2cccc(C(=O)N[C@@H](Cc3ccccc3)[C@H](O)CNCc3cccc4cc[nH]c34)c2)n1` [Compound 39, N1-((2S,3R)-4-((1H-indol-7-yl)methylamino)-3-hydroxy-1-phenylbutan-2-yl)-N3-methyl-N3-((4-methylthiazol-2-yl)methyl)isophthalamide], the Ki is under 300 nM.

On to `Cc1csc(CN(C)C(=O)c2cccc(C(=O)N[C@@H](Cc3ccccc3)[C@H](O)CNC(C)c3cccnc3)c2)n1` (stereo partly drawn) [Compound 43, N1-((2S,3R)-3-hydroxy-1-phenyl-4-(1-(pyridin-3-yl)ethylamino)butan-2-yl)-N3-methyl-N3-((4-methylthiazol-2-yl)methyl)isophthalamide], for which the Ki was over 501 nM.

Regarding `COc1cccc(CNC[C@@H](O)[C@H](Cc2ccccc2)NC(=O)c2cccc(C(=O)N(C)Cc3ccccn3)c2)c1` [Compound 45, N1-((2S,3R)-3-hydroxy-4-(3-methoxybenzylamino)-1-phenylbutan-2-yl)-N3-methyl-N3-(pyridin-2-ylmethyl)isophthalamide], the Ki is over 501 nM.

As for `COc1ccnc(CNC[C@@H](O)[C@H](Cc2ccccc2)NC(=O)c2cccc(C(=O)N(C)Cc3nc(C)cs3)c2)n1` [Compound 48, N1-((2S,3R)-3-hydroxy-4-((4-methoxypyrimidin-2-yl)methylamino)-1-phenylbutan-2-yl)-N3-methyl-N3-((4-methylthiazol-2-yl)methyl)isophthalamide], the Ki was over 501 nM.

`COc1cccc(CNC[C@@H](O)[C@H](Cc2ccccc2)NC(=O)c2cccc(C(=O)N(C)Cc3cccnc3)c2)c1` [Compound 55, N1-((2S,3R)-3-hydroxy-4-(3-methoxybenzylamino)-1-phenylbutan-2-yl)-N3-methyl-N3-(pyridin-3-ylmethyl)isophthalamide]: the Ki was over 501 nM.

`COc1cccc(CNC[C@@H](O)[C@H](Cc2ccccc2)NC(=O)c2cc(OC)cc(C(=O)N(CCO)Cc3nc(C)cs3)c2)c1` [Compound 57, N1-((2S,3R)-3-hydroxy-4-(3-methoxybenzylamino)-1-phenylbutan-2-yl)-N3-(2-hydroxyethyl)-5-methoxy-N3-((4-methylthiazol-2-yl)methyl)isophthalamide]: the Ki is under 300 nM.

In the case of `COC(=O)[C@H](CO)NC(=O)c1cc(C(=O)N[C@@H](Cc2ccccc2)[C@H](O)CNCc2cccc(OC)c2)cc(C(=O)N(C)Cc2nc(C)cs2)c1` [Compound 62, (S)-methyl 3-hydroxy-2-(3-((2S,3R)-3-hydroxy-4-(3-methoxybenzylamino)-1-phenylbutan-2-ylcarbamoyl)-5-(methyl((4-methylthiazol-2-yl)methyl)carbamoyl)benzamido)propanoate], the Ki is under 300 nM.

`COC(=O)[C@@H]1COC(c2cc(C(=O)N[C@@H](Cc3ccccc3)[C@H](O)CNCc3cccc(OC)c3)cc(C(=O)N(C)Cc3nc(C)cs3)c2)=N1` [Compound 63, (S)-methyl 2-(3-((2S,3R)-3-hydroxy-4-(3-methoxybenzylamino)-1-phenylbutan-2-ylcarbamoyl)-5-(methyl((4-methylthiazol-2-yl)methyl)carbamoyl)phenyl)-4,5-dihydrooxazole-4-carboxylate]: the Ki is over 501 nM.

With `COC(=O)c1coc(-c2cc(C(=O)N[C@@H](Cc3ccccc3)[C@H](O)CNCc3cccc(OC)c3)cc(C(=O)N(C)Cc3nc(C)cs3)c2)n1` [Compound 66, methyl 2-(3-((2S,3R)-3-hydroxy-4-(3-methoxybenzylamino)-1-phenylbutan-2-ylcarbamoyl)-5-(methyl((4-methylthiazol-2-yl)methyl)carbamoyl)phenyl)oxazole-4-carboxylate], the Ki was over 501 nM.

Take `COc1cccc(CNC[C@@H](O)[C@H](Cc2ccccc2)NC(=O)c2cc(OC)cc(C(=O)N[C@H](C)c3ccccc3)c2)c1` [Compound 69, N1-((2S,3R)-3-hydroxy-4-(3-methoxybenzylamino)-1-phenylbutan-2-yl)-5-methoxy-N3-((R)-1-phenylethyl)isophthalamide]: the Ki is over 501 nM.

For `CNc1cc(C(=O)N[C@@H](Cc2ccccc2)[C@H](O)CNCc2cccc(OC)c2)cc(C(=O)N(C)Cc2nc(C)cs2)c1` [Compound 76, N1-((2S,3R)-3-hydroxy-4-(3-methoxybenzylamino)-1-phenylbutan-2-yl)-N3-methyl-5-(methylamino)-N3-((4-methylthiazol-2-yl)methyl)isophthalamide], the Ki is under 300 nM.

With `COc1cccc(CNC[C@@H](O)[C@H](Cc2ccccc2)NC(=O)c2cccc(C(=O)Nc3nc(C)cs3)c2)c1` [Compound 80, N1-((2S,3R)-3-hydroxy-4-(3-methoxybenzylamino)-1-phenylbutan-2-yl)-N3-(4-methylthiazol-2-yl)isophthalamide], the Ki was over 501 nM.

Take `COc1cccc(CNC[C@@H](O)[C@H](Cc2ccccc2)NC(=O)c2cccc(C(=O)N(C)c3nc(C)cs3)c2)c1` [Compound 84, N1-((2S,3R)-3-hydroxy-4-(3-methoxybenzylamino)-1-phenylbutan-2-yl)-N3-methyl-N3-(4-methylthiazol-2-yl)isophthalamide]: the Ki was over 501 nM.
